Experimental findings from patent publication US20230339970A1, “CASEIN KINASE 1 DELTA MODULATORS” (priority 2020, published 2023) are described below.

One assay addresses T1, human CSNK1D (Homo sapiens, UniProt P48730).
T1 construct: expressed in transfected cells
Nature of the assay: Whole Cell nBRET CSNK1D Binding Assay. Conditions: living CHO cells stably expressing human CSNK1D tagged with nanoluciferase; NanoBret tracer 130 nM; 2 hours at 37 C.

Assay [1] concerns the target T2, human recombinant GST cleaved CSNK1D (Homo sapiens, UniProt P48730).
T2 construct: GST (cleaved yes); purchased University of Dundee clone DU 19064
In words: Purified Enzyme Assay (ADP-Glo CSNK1D Kinase Assay). Format: biochemical. Conditions: 2 nM CSNK1D; peptide substrate 150 μM; ATP 20 μM; 45 minutes at room temperature. The procedure, abridged:
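GST-cleaved human recombinant CSNK1D phosphorylates peptide PLSRTL-pS-VASLPGL with ATP; compounds added in dose-response, 45 min at room temperature. ADP formed measured by ADP-Glo luminescence and converted to percent activity.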

T2 sequence (P48730 whole entry): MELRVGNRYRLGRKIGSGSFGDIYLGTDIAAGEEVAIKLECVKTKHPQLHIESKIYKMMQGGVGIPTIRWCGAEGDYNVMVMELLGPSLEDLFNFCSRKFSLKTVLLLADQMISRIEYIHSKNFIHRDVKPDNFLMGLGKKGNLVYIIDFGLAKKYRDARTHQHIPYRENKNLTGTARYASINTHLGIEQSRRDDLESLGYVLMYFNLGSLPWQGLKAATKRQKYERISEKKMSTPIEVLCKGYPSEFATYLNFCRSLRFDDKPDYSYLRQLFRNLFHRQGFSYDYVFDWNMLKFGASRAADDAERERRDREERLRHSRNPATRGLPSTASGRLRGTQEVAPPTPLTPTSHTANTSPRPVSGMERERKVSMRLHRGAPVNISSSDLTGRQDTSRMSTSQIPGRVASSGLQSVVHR
T1 sequence (P48730 whole entry): as above

Broadly, the IC50 is the concentration that gives 50% inhibition. For the compound `Cc1cc(-c2c(-c3ccc(F)cn3)nn3c2C[C@@H]2C[C@@H]23)c2cn[nH]c2n1` [Example 28, (4aS,5aS)-2-(5-Fluoropyridin-2-yl)-3-(6-methyl-1H-pyrazolo[3,4-b]pyridin-4-yl)-4,4a,5,5a-tetrahydrocyclopropa[4,5]pyrrolo[1,2-b]pyrazole], the IC50 on human CSNK1D stood at 19 nM; in assay [1], 2 nM.

With `c1csc(-c2nn3c(c2-c2ccnc4[nH]ncc24)CCCC3)n1` [Example 29, 2-(3-(1H-Pyrazolo[3,4-b]pyridin-4-yl)-4,5,6,7-tetrahydropyrazolo[1,5-a]pyridin-2-yl)thiazole], the IC50 worked out at 1200 nM at human CSNK1D and 35 nM in assay [1].

Regarding `Cc1cc(-c2c(-c3nccs3)nn3c2CCCC3)c2cn[nH]c2n1` [Example 30, 2-(3-(6-Methyl-1H-pyrazolo[3,4-b]pyridin-4-yl)-4,5,6,7-tetrahydropyrazolo[1,5-a]pyridin-2-yl)thiazole], the IC50 on human CSNK1D was determined as 762 nM; in assay [1], 28 nM.

For the compound `c1cc(-c2c(-c3cscn3)nn3c2CCCC3)c2cn[nH]c2n1` [Example 31, 4-(3-(1H-Pyrazolo[3,4-b]pyridin-4-yl)-4,5,6,7-tetrahydropyrazolo[1,5-a]pyridin-2-yl)thiazole], the IC50 on human CSNK1D amounted to 995 nM; in assay [1], 65 nM.

On to `Cc1cc(-c2c(-c3cscn3)nn3c2CCCC3)c2cn[nH]c2n1` [Example 32, 4-(3-(6-Methyl-1H-pyrazolo[3,4-b]pyridin-4-yl)-4,5,6,7-tetrahydropyrazolo[1,5-a]pyridin-2-yl)thiazole], for which the IC50 at human CSNK1D turned out to be 3020 nM; in assay [1], 60 nM.

On to `Fc1ccc(-c2nn3c(c2-c2ccnc4[nH]ccc24)CCCC3)cc1` [Example 33, 4-[2-(4-Fluorophenyl)-4,5,6,7-tetrahydropyrazolo[1,5-a]pyridin-3-yl]-1H-pyrrolo[2,3-b]pyridine], for which the values for the half-maximal inhibitory concentration (IC50) (on human CSNK1D; in assay [1]) were 20 nM and 4 nM, respectively.

Consider `Fc1ccc(-c2nn3c(c2-c2c(F)cnc4[nH]ccc24)CCCC3)nc1` [Example 34, 5-Fluoro-4-[2-(5-fluoro-2-pyridyl)-4,5,6,7-tetrahydropyrazolo[1,5-a]pyridin-3-yl]-1H-pyrrolo[2,3-b]pyridine], for which the IC50 on human CSNK1D was 77 nM; in assay [1] it was 8 nM.

Consider `Fc1ccc(-c2nn3c(c2-c2ccnc4[nH]ncc24)CCCC3)nc1` [Example 35, 4-[2-(5-Fluoro-2-pyridyl)-4,5,6,7-tetrahydropyrazolo[1,5-a]pyridin-3-yl]-1H-pyrazolo[3,4-b]pyridine], for which the results for the half-maximal inhibitory concentration (IC50) (at human CSNK1D; in assay [1]) were 374 nM and 11 nM, respectively.

Turning to `Cc1cc(-c2c(-c3ccc(F)cn3)nn3c2CCCC3)c2cn[nH]c2n1` [Example 36, 4-[2-(5-Fluoro-2-pyridyl)-4,5,6,7-tetrahydropyrazolo[1,5-a]pyridin-3-yl]-6-methyl-1H-pyrazolo[3,4-b]pyridine], the concentration for half-maximal inhibition (IC50) at human CSNK1D worked out at 133 nM; in assay [1] it was 6 nM.

For the compound `Cc1cc(-c2c(-c3ncc(F)cc3F)nn3c2CCCC3)c2cn[nH]c2n1` [Example 37, 4-[2-(3,5-Difluoro-2-pyridyl)-4,5,6,7-tetrahydropyrazolo[1,5-a]pyridin-3-yl]-6-methyl-1H-pyrazolo[3,4-b]pyridine], the IC50 at human CSNK1D came to 210 nM; in assay [1], 11 nM.

`Fc1cnc(-c2nn3c(c2-c2ccnc4[nH]ncc24)CCCC3)c(F)c1` [Example 38, 4-[2-(3,5-Difluoro-2-pyridyl)-4,5,6,7-tetrahydropyrazolo[1,5-a]pyridin-3-yl]-1H-pyrazolo[3,4-b]pyridine]: the figures for the 50% inhibitory concentration (IC50) (at human CSNK1D; in assay [1]) were 238 nM and 14 nM, respectively.

As to `Nc1cc(-c2c(-c3ccc(F)cc3)nn3c2CCC(F)(F)C3)ccn1` [Example 41, 4-(6,6-Difluoro-2-(4-fluorophenyl)-4,5,6,7-tetrahydropyrazolo[1,5-a]pyridin-3-yl)pyridin-2-amine], the half-inhibitory concentration (IC50) amounted to 75 nM on human CSNK1D and 8 nM in assay [1].

In the case of `Fc1ccc(-c2nn3c(c2-c2ccnc4[nH]ncc24)CCC(F)(F)C3)cc1` [Example 42, 4-(6,6-Difluoro-2-(4-fluorophenyl)-4,5,6,7-tetrahydropyrazolo[1,5-a]pyridin-3-yl)-1H-pyrazolo[3,4-b]pyridine], the IC50 on human CSNK1D is 16 nM; in assay [1], 3 nM.

For `Cc1cc(-c2c(-c3ccc(F)cc3)nn3c2CCC(F)(F)C3)c2cn[nH]c2n1` [Example 43, 4-[6,6-Difluoro-2-(4-fluorophenyl)-5,7-dihydro-4H-pyrazolo[1,5-a]pyridin-3-yl]-6-methyl-1H-pyrazolo[3,4-b]pyridine], the figures for the IC50 (at human CSNK1D; in assay [1]) were 12 nM and 2 nM, respectively.

In the case of `Fc1ccc(-c2nn3c(c2-c2ccnc4[nH]ncc24)CCC(F)(F)C3)nc1` [Example 44, 4-(6,6-Difluoro-2-(5-fluoropyridin-2-yl)-4,5,6,7-tetrahydropyrazolo[1,5-a]pyridin-3-yl)-1H-pyrazolo[3,4-b]pyridine], the IC50 on human CSNK1D turned out to be 296 nM; in assay [1], 16 nM.

As for `Cc1cc(-c2c(-c3ccc(F)cn3)nn3c2CCC(F)(F)C3)c2cn[nH]c2n1` [Example 45, 4-(6,6-Difluoro-2-(5-fluoropyridin-2-yl)-4,5,6,7-tetrahydropyrazolo[1,5-a]pyridin-3-yl)-6-methyl-1H-pyrazolo[3,4-b]pyridine], the figures for the IC50 (at human CSNK1D; in assay [1]) were 169 nM and 12 nM, respectively.

For `Fc1ccc(-c2nn3c(c2-c2ccnc4[nH]ncc24)CC(F)(F)CC3)cc1` [Example 46, 4-(5,5-Difluoro-2-(4-fluorophenyl)-4,5,6,7-tetrahydropyrazolo[1,5-a]pyridin-3-yl)-1H-pyrazolo[3,4-b]pyridine], the IC50 is 82 nM on human CSNK1D and 8 nM in assay [1].

Turning to `Cc1cc(-c2c(-c3ccc(F)cc3)nn3c2CC(F)(F)CC3)c2cn[nH]c2n1` [Example 47, 4-(5,5-Difluoro-2-(4-fluorophenyl)-4,5,6,7-tetrahydropyrazolo[1,5-a]pyridin-3-yl)-6-methyl-1H-pyrazolo[3,4-b]pyridine], the half-maximal inhibitory concentration (IC50) at human CSNK1D came to 79 nM; in assay [1], 11 nM.

On to `Fc1ccc(-c2nn3c(c2-c2ccnc4[nH]ncc24)CC(F)(F)CC3)nc1` [Example 48, 4-[5,5-Difluoro-2-(5-fluoro-2-pyridyl)-6,7-dihydro-4H-pyrazolo[1,5-a]pyridin-3-yl]-1H-pyrazolo[3,4-b]pyridine], for which the IC50 at human CSNK1D worked out at 924 nM; in assay [1], 40 nM.

On to `CC1(C)CCc2c(-c3ccnc4[nH]ncc34)c(-c3ccc(F)cn3)nn2C1` [Example 49, 4-[2-(5-Fluoro-2-pyridyl)-6,6-dimethyl-5,7-dihydro-4H-pyrazolo[1,5-a]pyridin-3-yl]-1H-pyrazolo[3,4-b]pyridine], for which the IC50 on human CSNK1D came out at 11 nM; in assay [1] it was 1 nM.

Consider `CC1(C)CCn2nc(-c3ccc(F)cn3)c(-c3ccnc4[nH]ncc34)c2C1` [Example 50, 4-(2-(5-Fluoropyridin-2-yl)-5,5-dimethyl-4,5,6,7-tetrahydropyrazolo[1,5-a]pyridin-3-yl)-1H-pyrazolo[3,4-b]pyridine], for which the concentration for half-maximal inhibition (IC50) on human CSNK1D worked out at 28 nM; in assay [1], 2 nM.

Turning to `Fc1ccc(-c2nn3c(c2-c2ccnc4[nH]ncc24)C2CCC3CC2)cc1` [Example 64, 2-(4-Fluorophenyl)-3-(1H-pyrazolo[3,4-b]pyridin-4-yl)-4,5,6,7-tetrahydro-4,7-ethanopyrazolo[1,5-a]pyridine], the IC50 was 12 nM at human CSNK1D and 1 nM in assay [1].

As for `Fc1ccc(-c2nn3c(c2-c2ccnc4[nH]ncc24)C2CCC3CC2)nc1` [Example 65, 2-(5-Fluoropyridin-2-yl)-3-(1H-pyrazolo[3,4-b]pyridin-4-yl)-4,5,6,7-tetrahydro-4,7-ethanopyrazolo[1,5-a]pyridine], the IC50 on human CSNK1D was found to be 55 nM; in assay [1], 3 nM.

As for `Cc1cc(-c2c(-c3ccc(F)cc3)nn3c2C2CCC3CC2)c2cn[nH]c2n1` [Example 66, 2-(4-Fluorophenyl)-3-(6-methyl-1H-pyrazolo[3,4-b]pyridin-4-yl)-4,5,6,7-tetrahydro-4,7-ethanopyrazolo[1,5-a]pyridine], the figures for the IC50 (at human CSNK1D; in assay [1]) were 4 nM and 2 nM, respectively.

As for `Clc1ccc(-c2nn3c(c2-c2ccnc4[nH]ncc24)COCC3)cc1` [Example 67, 2-(4-Chlorophenyl)-3-(1H-pyrazolo[3,4-b]pyridin-4-yl)-6,7-dihydro-4H-pyrazolo[5,1-c][1,4]oxazine], the concentration for half-maximal inhibition (IC50) on human CSNK1D came out at 243 nM; in assay [1], 20 nM.

Turning to `Cc1cc(-c2c(-c3ccc(Cl)cc3)nn3c2COCC3)c2cn[nH]c2n1` [Example 68, 2-(4-Chlorophenyl)-3-(6-methyl-1H-pyrazolo[3,4-b]pyridin-4-yl)-6,7-dihydro-4H-pyrazolo[5,1-c][1,4]oxazine], the IC50 on human CSNK1D was 206 nM; in assay [1], 27 nM.

On to `Fc1ccc(-c2nn3c(c2-c2ccnc4[nH]ccc24)COCC3)cc1` [Example 69, 2-(4-Fluorophenyl)-3-(1H-pyrrolo[2,3-b]pyridin-4-yl)-6,7-dihydro-4H-pyrazolo[5,1-c][1,4]oxazine], for which the values for the half-inhibitory concentration (IC50) (at human CSNK1D; in assay [1]) were 43 nM and 7 nM, respectively.

`Fc1ccc(-c2nn3c(c2-c2ccnc4[nH]ncc24)COCC3)cc1` [Example 70, 2-(4-Fluorophenyl)-3-(1H-pyrazolo[3,4-b]pyridin-4-yl)-6,7-dihydro-4H-pyrazolo[5,1-c][1,4]oxazine]: the IC50 was 37 nM at human CSNK1D and 2 nM in assay [1].

Turning to `Cc1cc(-c2c(-c3ccc(F)cc3)nn3c2COCC3)c2cn[nH]c2n1` [Example 71, 2-(4-Fluorophenyl)-3-(6-methyl-1H-pyrazolo[3,4-b]pyridin-4-yl)-6,7-dihydro-4H-pyrazolo[5,1-c][1,4]oxazine], the half-maximal inhibitory concentration (IC50) turned out to be 21 nM on human CSNK1D and 2 nM in assay [1].
